Results from PubChem BioAssay (NCI).
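Test compounds were applied to cells in 96-well plates for 48 hours at 5 doses. At the GI50, growth is halved. TGI marks complete inhibition of growth.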

Columns and labels:
Experiment in all cases: growth of human tumour cells (NCI), 48 h
COLO 205 colon = system: COLO 205 colon
EKVX NSCLC = system: EKVX NSCLC
LOX IMVI melanoma = system: LOX IMVI melanoma
MOLT-4 leukemia = system: MOLT-4 leukemia
OVCAR-5 ovarian = system: OVCAR-5 ovarian
SNB-19 CNS = system: SNB-19 CNS
U251 CNS = system: U251 CNS
UACC-257 melanoma = system: UACC-257 melanoma
SK-MEL-2 melanoma = system: SK-MEL-2 melanoma
T-47D breast = system: T-47D breast

| SMILES | TGI (COLO 205 colon) | TGI (EKVX NSCLC) | TGI (LOX IMVI melanoma) | TGI (MOLT-4 leukemia) | TGI (OVCAR-5 ovarian) | TGI (SNB-19 CNS) | TGI (U251 CNS) | TGI (UACC-257 melanoma) | TGI (SK-MEL-2 melanoma) | GI50 (COLO 205 colon) | GI50 (EKVX NSCLC) | GI50 (LOX IMVI melanoma) | GI50 (MOLT-4 leukemia) | GI50 (OVCAR-5 ovarian) | GI50 (SK-MEL-2 melanoma) | GI50 (SNB-19 CNS) | GI50 (T-47D breast) | TGI (T-47D breast) | GI50 (U251 CNS) | GI50 (UACC-257 melanoma) |
| --- | --- | --- | --- | --- | --- | --- | --- | --- | --- | --- | --- | --- | --- | --- | --- | --- | --- | --- | --- | --- |
| COC(=O)C1C=CCC2CCCCC21N1CCCC1 (stereo not drawn) | > 100 µM | > 100 µM | > 100 µM | > 100 µM | > 100 µM | > 100 µM | > 100 µM | > 100 µM | – | – | – | – | – | – | – | – | – | – | – | – |
| COc1ccc(-c2ccc(CC(=O)O)cc2)cc1OC | > 100 µM | > 100 µM | – | > 100 µM | > 100 µM | > 100 µM | > 100 µM | > 100 µM | > 100 µM | – | – | – | – | – | – | – | – | – | – | – |
| O=C1CC23CCCCCCCCCCC2(C1)CC(=O)C3 (stereo not drawn) | 33.5 µM | > 100 µM | – | 56.2 µM | 72.1 µM | 76.3 µM | 75.6 µM | > 100 µM | 42.9 µM | – | – | – | – | – | – | – | – | – | – | – |
| Cn1c(=O)oc2cc(C3CCC(=O)N3Cc3csc(-c4ccccc4)n3)ccc21 (stereo not drawn) | > 100 µM | > 100 µM | > 100 µM | > 100 µM | > 100 µM | > 100 µM | > 100 µM | > 100 µM | > 100 µM | – | – | – | – | – | – | – | – | – | – | – |
| N/N=C(/Cc1ccccc1)NNO | > 100 µM | > 100 µM | > 100 µM | > 100 µM | > 100 µM | > 100 µM | – | > 100 µM | > 100 µM | – | – | – | – | – | – | – | – | – | – | – |
| CC(=O)N1[C@H](C(=O)O)CS[C@H]1c1ccc(F)cc1 | > 100 µM | – | > 100 µM | > 100 µM | > 100 µM | > 100 µM | – | > 100 µM | – | – | – | – | – | – | – | – | – | – | – | – |
| O=C(CC1=Nc2nnc(CCCCCCCc3nnc4n3C(=O)C(CC(=O)c3ccc5ccccc5c3)=N4)n2C1=O)c1ccc2ccccc2c1 | > 100 µM | > 100 µM | > 100 µM | > 100 µM | > 100 µM | > 100 µM | > 100 µM | > 100 µM | > 100 µM | – | – | – | – | – | – | – | – | – | – | – |
| CN(C)C(=S)/N=c1\ss/c(=N\C(=S)N(C)C)n1-c1cccc(Cl)c1 | > 100 µM | > 100 µM | > 100 µM | > 100 µM | > 100 µM | > 100 µM | > 100 µM | > 100 µM | > 100 µM | – | – | – | – | – | – | – | – | – | – | – |
| COc1ccc(-n2cc(-c3ccc(OC)c(OC)c3)[nH]c2=O)cc1 | > 100 µM | > 100 µM | > 100 µM | > 100 µM | > 100 µM | > 100 µM | > 100 µM | – | > 100 µM | > 100 µM | > 100 µM | > 100 µM | > 100 µM | > 100 µM | > 100 µM | > 100 µM | > 100 µM | > 100 µM | > 100 µM | – |
| CN1CCCC2[C@@H]3CCC4c5nonc5CC[C@]4(C)C3CC[C@@]21C (stereo partly drawn) | > 100 µM | > 100 µM | – | > 100 µM | > 100 µM | > 100 µM | > 100 µM | > 100 µM | > 100 µM | – | – | – | – | – | – | – | – | – | – | – |
| Cc1ccc(C2=CC(=O)c3ccccc3C2=O)n1-c1ccccc1 | > 100 µM | > 100 µM | > 100 µM | 98.5 µM | – | > 100 µM | > 100 µM | – | – | – | – | – | – | – | – | – | – | – | – | – |
| N=C1CCCC1C(=S)SCCC(N)=O (stereo not drawn) | > 100 µM | > 100 µM | – | > 100 µM | > 100 µM | > 100 µM | > 100 µM | > 100 µM | > 100 µM | – | – | – | – | – | – | – | – | > 100 µM | – | – |
| C1=CC(=P(c2ccccc2)(c2ccccc2)c2ccccc2)C=C1 | 14.8 µM | 82.5 µM | 24.6 µM | 23.4 µM | 28.6 µM | 31.6 µM | – | 20.3 µM | 30.3 µM | – | – | – | – | – | – | – | – | – | – | – |
| COc1cc2c(cc1C)NC(=O)/C2=C/c1ccnc2ccccc12 | > 50 µM | > 50 µM | – | > 50 µM | > 50 µM | 36.3 µM | 35.9 µM | 48.9 µM | > 50 µM | 38.9 µM | 25.5 µM | – | > 50 µM | 30 µM | 26.3 µM | 6.88 µM | 28.7 µM | > 50 µM | 9.92 µM | 9.77 µM |
| O=c1c2cccnc2ncn1CCCN1CCCCC1 | > 100 µM | > 100 µM | > 100 µM | > 100 µM | > 100 µM | > 100 µM | > 100 µM | – | > 100 µM | – | – | – | – | – | – | – | – | – | – | – |
| CCC[CH2][Sn-]([CH2]CCC)([CH2]CCC)[O]C(=O)C(C)C | 0.274 µM | 0.362 µM | 0.215 µM | 0.348 µM | 0.262 µM | 0.351 µM | 0.294 µM | 0.265 µM | 0.411 µM | 0.13 µM | 0.154 µM | 0.0816 µM | 0.102 µM | 0.107 µM | 0.189 µM | 0.186 µM | – | – | 0.144 µM | 0.135 µM |
| Cc1cccc(N2C(=O)/C(=C/C(Cl)=C/c3ccc([N+](=O)[O-])cc3)SC2=S)c1C | 5.08 µM | > 100 µM | 3.25 µM | > 100 µM | 5.67 µM | > 100 µM | 5.94 µM | – | > 100 µM | 1.81 µM | 2.73 µM | 1.42 µM | 1.02 µM | 2.43 µM | 3.85 µM | 2.9 µM | 2.7 µM | > 100 µM | 1.95 µM | – |
| COc1cc(O)ccc1C(=S)SC | > 100 µM | 46.3 µM | – | 92.2 µM | > 100 µM | > 100 µM | > 100 µM | > 100 µM | > 100 µM | – | – | – | – | – | – | – | – | > 100 µM | – | – |
| O=C(c1ccccc1)C1N=NN(Cc2ccccc2[N+](=O)[O-])C1C(=O)c1ccccc1 (stereo not drawn) | > 100 µM | > 100 µM | > 100 µM | > 100 µM | > 100 µM | > 100 µM | > 100 µM | > 100 µM | > 100 µM | – | – | – | – | – | – | – | – | – | – | – |
| O=C(Nc1ccc(Cl)cc1C(F)(F)F)C(=O)Nn1c(=S)[nH]c2ccccc2c1=O | – | – | > 100 µM | > 100 µM | > 100 µM | – | > 100 µM | > 100 µM | > 100 µM | – | – | – | – | – | – | – | – | > 100 µM | – | – |
| O=C1NC(O)n2c(=O)[nH]c(=O)n21 (stereo not drawn) | > 100 µM | > 100 µM | > 100 µM | > 100 µM | > 100 µM | > 100 µM | > 100 µM | > 100 µM | > 100 µM | – | – | – | – | – | – | – | – | – | – | – |
| c1cnc2c(c1)-n1cccc1C1(CCCCC1)NN2 | > 100 µM | > 100 µM | > 100 µM | > 100 µM | > 100 µM | > 100 µM | – | > 100 µM | > 100 µM | – | – | – | – | – | – | – | – | – | – | – |
